In the supplement of paper PMC12819154, “High-throughput peptide-centric local stability assay extends protein–ligand identification to membrane proteins, tissues and bacteria” (Nature Structural & Molecular Biology, 2025):

Experiments:
Assay in all cases: pEC50 of peptide local stability change
MurF = MurF (UniProt P11880); conditions: peptide sequence: KLTPGCLFVALKGER; direction: stabilized; replicate design: treated separately
Experimental: (§1)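 Dose-response HT-PELSA: desalted E. coli lysate treated separately per replicate with ATP (10 uM to 10 mM, 7 doses) for 30 min at 25 C, then a 4 min trypsin pulse at 22 C. Peptide ratio vs control was fitted with a 4-parameter log-logistic model (R2 > 0.9 in at least 3 replicates, CV of pEC50 <= 0.25); value is the mean pEC50 across replicates for stabilized or destabilized peptides.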

UniProt P00582 = conditions: peptide sequence: LYLPDIK; direction: stabilized; replicate design: treated separately
Experimental: as §1

UniProt P00954 = conditions: peptide sequence: FRNDEAFLQQVMK; direction: stabilized; replicate design: treated separately
Experimental: as §1

UniProt P06999 = conditions: peptide sequence: ELTQPDDVR; direction: stabilized; replicate design: treated separately
Experimental: as §1

UniProt P07109 = conditions: peptide sequence: HVSTHVIFLHQGK; direction: stabilized; replicate design: treated separately
Experimental: as §1

UniProt P07395 = conditions: peptide sequence: EISRFPANRR; direction: stabilized; replicate design: treated separately
Experimental: as §1

UniProt P09980 = conditions: peptide sequence: DYAILYR; direction: stabilized; replicate design: treated separately
Experimental: as §1

UniProt P0A8F8 = conditions: peptide sequence: VLVTTLTKR; direction: stabilized; replicate design: treated separately
Experimental: as §1

UniProt P0A9B6 = conditions: peptide sequence: SLQSLPWR; direction: stabilized; replicate design: treated separately
Experimental: as §1

UniProt P0ACL0 = conditions: peptide sequence: HVMLVVDHSK; direction: stabilized; replicate design: treated separately
Experimental: as §1

UniProt P0AES0 = conditions: peptide sequence: GDESLVIKK; direction: stabilized; replicate design: treated separately
Experimental: as §1

UniProt P0AFW8 = conditions: peptide sequence: KNVEYLVVEAAGETR; direction: stabilized; replicate design: treated separately
Experimental: as §1

UniProt P11868 = conditions: peptide sequence: HIAGHAASLR; direction: stabilized; replicate design: treated separately
Experimental: as §1

UniProt P18392 = conditions: peptide sequence: EHIFEPFVR; direction: stabilized; replicate design: treated separately
Experimental: as §1

UniProt P21345 = conditions: peptide sequence: EVLGKFDK; direction: stabilized; replicate design: treated separately
Experimental: as §1

UniProt P21693 = conditions: peptide sequence: DSLQHAPHIIVATPGR; direction: stabilized; replicate design: treated separately
Experimental: as §1

UniProt P23874 = conditions: peptide sequence: ISVAGAQEK; direction: stabilized; replicate design: treated separately
Experimental: as §1

UniProt P24193 = conditions: peptide sequence: DAALIGEVVERK; direction: stabilized; replicate design: treated separately
Experimental: as §1

UniProt P25539 = conditions: peptide sequence: HVGPDVCLHLVGA; direction: stabilized; replicate design: treated separately
Experimental: as §1

UniProt P27833 = conditions: peptide sequence: SALINFLK; direction: stabilized; replicate design: treated separately
Experimental: as §1

UniProt P30015 = conditions: peptide sequence: TGDTPAQER; direction: stabilized; replicate design: treated separately
Experimental: as §1

UniProt P31060 = conditions: peptide sequence: QSQFSHITR; direction: stabilized; replicate design: treated separately
Experimental: as §1

UniProt P31663 = conditions: peptide sequence: NGYLTAEQR; direction: stabilized; replicate design: treated separately
Experimental: as §1

UniProt P39359 = conditions: peptide sequence: EVADFLINK; direction: stabilized; replicate design: treated separately
Experimental: as §1

UniProt P39383 = conditions: peptide sequence: QLVDFADK; direction: stabilized; replicate design: treated separately
Experimental: as §1

UniProt P40719 = conditions: peptide sequence: RFTSDAAHELR; direction: stabilized; replicate design: treated separately
Experimental: as §1

UniProt P46889 = conditions: peptide sequence: DIAGEPVVADLAK; direction: stabilized; replicate design: treated separately
Experimental: as §1

UniProt P75796 = conditions: peptide sequence: IPEAQTILSR; direction: stabilized; replicate design: treated separately
Experimental: as §1

UniProt P76192 = conditions: peptide sequence: VLPAEEYAEIR; direction: stabilized; replicate design: treated separately
Experimental: as §1

UniProt P76422 = conditions: peptide sequence: GGHLDDEQSPDWLFTR; direction: stabilized; replicate design: treated separately
Experimental: as §1

UniProt P76594 = conditions: peptide sequence: YLVIQGIK; direction: stabilized; replicate design: treated separately
Experimental: as §1

Sequence of UniProt P21345 (P21345 whole entry): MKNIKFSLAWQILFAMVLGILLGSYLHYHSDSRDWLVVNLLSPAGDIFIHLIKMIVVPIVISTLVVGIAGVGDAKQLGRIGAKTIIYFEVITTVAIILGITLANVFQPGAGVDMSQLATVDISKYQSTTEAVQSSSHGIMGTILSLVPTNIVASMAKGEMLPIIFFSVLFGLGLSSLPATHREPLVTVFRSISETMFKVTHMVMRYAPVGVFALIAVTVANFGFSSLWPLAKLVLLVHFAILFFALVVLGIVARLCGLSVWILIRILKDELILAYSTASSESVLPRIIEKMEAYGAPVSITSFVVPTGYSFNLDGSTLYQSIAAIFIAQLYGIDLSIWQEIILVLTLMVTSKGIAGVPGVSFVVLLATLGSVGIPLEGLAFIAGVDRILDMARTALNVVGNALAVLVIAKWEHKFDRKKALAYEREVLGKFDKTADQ
Sequence of UniProt P00582 (P00582 whole entry): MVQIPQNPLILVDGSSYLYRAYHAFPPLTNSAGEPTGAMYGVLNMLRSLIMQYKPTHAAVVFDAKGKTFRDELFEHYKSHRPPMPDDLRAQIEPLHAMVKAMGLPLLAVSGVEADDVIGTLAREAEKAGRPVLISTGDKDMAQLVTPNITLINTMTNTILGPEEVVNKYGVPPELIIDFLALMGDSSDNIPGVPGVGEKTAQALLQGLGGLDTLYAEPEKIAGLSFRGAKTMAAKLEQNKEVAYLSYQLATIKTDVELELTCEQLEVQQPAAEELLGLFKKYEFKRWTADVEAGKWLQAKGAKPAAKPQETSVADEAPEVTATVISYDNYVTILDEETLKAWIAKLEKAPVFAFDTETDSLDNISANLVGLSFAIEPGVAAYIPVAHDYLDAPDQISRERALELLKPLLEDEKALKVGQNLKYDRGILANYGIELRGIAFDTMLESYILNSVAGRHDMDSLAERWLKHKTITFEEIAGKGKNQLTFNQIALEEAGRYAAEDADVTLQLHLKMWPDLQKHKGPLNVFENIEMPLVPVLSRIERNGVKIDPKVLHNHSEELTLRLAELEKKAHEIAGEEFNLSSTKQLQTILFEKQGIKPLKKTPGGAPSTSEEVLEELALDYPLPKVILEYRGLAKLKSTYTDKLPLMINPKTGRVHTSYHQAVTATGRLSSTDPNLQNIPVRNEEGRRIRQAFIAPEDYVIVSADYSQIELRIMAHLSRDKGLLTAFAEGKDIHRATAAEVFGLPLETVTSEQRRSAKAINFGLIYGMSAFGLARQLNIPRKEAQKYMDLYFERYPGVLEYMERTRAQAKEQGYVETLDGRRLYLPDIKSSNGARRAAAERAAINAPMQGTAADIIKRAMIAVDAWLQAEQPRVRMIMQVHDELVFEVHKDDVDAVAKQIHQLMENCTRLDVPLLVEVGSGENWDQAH
Sequence of UniProt P21693 (P21693 whole entry): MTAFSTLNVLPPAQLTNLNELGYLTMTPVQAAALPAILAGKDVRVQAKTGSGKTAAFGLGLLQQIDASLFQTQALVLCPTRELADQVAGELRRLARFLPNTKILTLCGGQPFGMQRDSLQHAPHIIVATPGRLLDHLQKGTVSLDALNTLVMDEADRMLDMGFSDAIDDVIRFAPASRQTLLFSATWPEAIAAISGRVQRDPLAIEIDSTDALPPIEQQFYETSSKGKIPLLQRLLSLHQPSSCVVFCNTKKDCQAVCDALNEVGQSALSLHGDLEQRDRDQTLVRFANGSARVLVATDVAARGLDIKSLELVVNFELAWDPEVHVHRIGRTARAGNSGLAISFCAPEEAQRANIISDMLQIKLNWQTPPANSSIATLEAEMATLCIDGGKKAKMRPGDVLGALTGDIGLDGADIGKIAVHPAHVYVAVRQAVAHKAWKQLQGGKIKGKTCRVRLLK
Sequence of UniProt P23874 (P23874 whole entry): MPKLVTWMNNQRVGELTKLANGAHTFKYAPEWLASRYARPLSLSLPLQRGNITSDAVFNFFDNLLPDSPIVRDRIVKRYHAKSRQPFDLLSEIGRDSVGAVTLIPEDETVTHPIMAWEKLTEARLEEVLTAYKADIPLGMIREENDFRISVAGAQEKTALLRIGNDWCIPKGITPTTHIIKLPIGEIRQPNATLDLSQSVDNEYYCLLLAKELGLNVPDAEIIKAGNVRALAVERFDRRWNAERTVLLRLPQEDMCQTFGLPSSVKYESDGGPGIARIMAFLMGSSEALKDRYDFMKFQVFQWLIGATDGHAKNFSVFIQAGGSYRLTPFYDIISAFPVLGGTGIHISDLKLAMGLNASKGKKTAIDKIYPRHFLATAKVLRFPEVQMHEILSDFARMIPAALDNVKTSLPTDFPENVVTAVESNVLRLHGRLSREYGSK
Sequence of UniProt P09980 (P09980 whole entry): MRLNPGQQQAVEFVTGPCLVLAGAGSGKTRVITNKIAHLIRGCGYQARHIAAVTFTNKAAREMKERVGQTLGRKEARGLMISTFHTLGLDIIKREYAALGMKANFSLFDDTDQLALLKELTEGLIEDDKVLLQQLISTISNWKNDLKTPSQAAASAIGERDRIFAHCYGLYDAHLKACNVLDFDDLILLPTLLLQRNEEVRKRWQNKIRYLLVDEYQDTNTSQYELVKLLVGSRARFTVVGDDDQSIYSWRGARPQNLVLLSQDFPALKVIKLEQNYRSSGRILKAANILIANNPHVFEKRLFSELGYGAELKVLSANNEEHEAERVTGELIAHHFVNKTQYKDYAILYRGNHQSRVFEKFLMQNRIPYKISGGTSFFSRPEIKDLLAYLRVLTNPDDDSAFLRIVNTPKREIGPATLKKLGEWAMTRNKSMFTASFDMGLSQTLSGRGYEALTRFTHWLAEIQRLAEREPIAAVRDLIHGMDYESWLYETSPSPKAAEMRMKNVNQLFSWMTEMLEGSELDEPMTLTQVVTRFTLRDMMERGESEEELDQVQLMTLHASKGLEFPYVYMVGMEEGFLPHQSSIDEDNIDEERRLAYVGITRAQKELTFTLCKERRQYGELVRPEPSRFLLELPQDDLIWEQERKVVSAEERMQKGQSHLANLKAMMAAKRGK
Sequence of UniProt P11868 (P11868 whole entry): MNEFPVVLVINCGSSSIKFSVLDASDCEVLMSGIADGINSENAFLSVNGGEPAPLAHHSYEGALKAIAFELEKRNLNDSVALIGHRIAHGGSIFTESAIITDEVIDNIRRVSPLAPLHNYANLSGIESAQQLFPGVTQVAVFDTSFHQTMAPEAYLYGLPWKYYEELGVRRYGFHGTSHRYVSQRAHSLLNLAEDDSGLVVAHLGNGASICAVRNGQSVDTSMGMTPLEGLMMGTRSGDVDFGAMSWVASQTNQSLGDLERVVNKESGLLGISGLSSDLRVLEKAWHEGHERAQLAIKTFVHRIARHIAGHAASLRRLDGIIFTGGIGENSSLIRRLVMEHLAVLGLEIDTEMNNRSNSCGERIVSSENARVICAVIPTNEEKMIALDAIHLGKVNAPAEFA
Sequence of UniProt P06999 (P06999 whole entry): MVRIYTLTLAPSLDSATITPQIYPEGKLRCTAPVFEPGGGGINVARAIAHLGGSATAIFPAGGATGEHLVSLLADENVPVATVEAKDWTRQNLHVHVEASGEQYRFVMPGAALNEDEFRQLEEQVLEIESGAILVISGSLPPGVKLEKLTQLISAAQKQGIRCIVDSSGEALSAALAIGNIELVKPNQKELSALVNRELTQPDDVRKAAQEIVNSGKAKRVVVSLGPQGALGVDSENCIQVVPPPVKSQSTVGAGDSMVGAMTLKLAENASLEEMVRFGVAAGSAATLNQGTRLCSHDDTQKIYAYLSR
Sequence of UniProt P40719 (P40719 whole entry): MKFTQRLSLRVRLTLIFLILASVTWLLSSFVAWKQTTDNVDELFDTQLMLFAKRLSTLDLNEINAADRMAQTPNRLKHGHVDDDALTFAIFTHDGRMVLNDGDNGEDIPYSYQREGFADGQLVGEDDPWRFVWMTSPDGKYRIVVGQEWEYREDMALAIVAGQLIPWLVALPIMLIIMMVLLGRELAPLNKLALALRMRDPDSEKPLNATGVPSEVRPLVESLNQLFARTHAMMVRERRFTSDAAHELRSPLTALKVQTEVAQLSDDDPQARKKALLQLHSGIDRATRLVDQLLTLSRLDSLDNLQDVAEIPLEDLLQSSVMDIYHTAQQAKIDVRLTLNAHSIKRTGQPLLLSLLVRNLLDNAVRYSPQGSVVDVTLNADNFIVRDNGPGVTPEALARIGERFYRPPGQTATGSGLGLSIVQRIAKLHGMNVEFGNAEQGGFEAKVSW
Sequence of UniProt P31663 (P31663 whole entry): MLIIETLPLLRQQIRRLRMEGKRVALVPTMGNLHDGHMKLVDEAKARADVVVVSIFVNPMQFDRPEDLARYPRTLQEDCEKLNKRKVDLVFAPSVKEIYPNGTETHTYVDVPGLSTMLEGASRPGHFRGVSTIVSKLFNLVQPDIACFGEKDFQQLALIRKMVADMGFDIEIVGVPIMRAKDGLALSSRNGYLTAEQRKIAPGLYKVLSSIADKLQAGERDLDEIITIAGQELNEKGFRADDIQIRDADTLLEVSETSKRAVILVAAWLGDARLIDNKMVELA
Sequence of MurF (P11880 whole entry): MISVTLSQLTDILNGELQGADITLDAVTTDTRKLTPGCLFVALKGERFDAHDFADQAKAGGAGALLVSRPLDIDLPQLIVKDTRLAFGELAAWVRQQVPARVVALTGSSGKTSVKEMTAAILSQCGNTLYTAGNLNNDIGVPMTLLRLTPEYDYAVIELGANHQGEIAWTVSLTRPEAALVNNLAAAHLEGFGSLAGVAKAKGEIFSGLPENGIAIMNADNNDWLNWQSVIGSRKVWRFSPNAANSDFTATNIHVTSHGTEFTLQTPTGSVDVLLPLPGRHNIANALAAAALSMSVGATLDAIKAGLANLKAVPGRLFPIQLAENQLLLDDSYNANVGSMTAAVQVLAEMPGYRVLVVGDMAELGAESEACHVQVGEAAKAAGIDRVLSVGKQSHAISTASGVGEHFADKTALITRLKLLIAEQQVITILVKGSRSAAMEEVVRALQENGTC
Sequence of UniProt P0AFW8 (P0AFW8 whole entry): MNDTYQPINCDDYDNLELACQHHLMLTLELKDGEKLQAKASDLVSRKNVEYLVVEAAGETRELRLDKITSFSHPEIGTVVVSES

Nc1ncnc2c1ncn2[C@@H]1O[C@H](COP(=O)(O)OP(=O)(O)OP(=O)(O)O)[C@@H](O)[C@H]1O [adenosine 5'-triphosphate]
Conditions | pEC50 of peptide local stability change
MurF | 4.01
UniProt P0A8F8 | 2.14
UniProt P0A9B6 | 2.62
UniProt P0ACL0 | 4.44
UniProt P0AES0 | 3.95
UniProt P0AFW8 | 3.07
UniProt P00582 | 3.5
UniProt P00954 | 2.73
UniProt P06999 | 3.2
UniProt P07109 | 3.88
UniProt P07395 | 3.77
UniProt P09980 | 4.14
UniProt P11868 | 3.41
UniProt P18392 | 2.88
UniProt P21345 | 2.25
UniProt P21693 | 3.65
UniProt P23874 | 3.78
UniProt P24193 | 4.4
UniProt P25539 | 2.74
UniProt P27833 | 2.89
UniProt P30015 | 3.43
UniProt P31060 | 2.89
UniProt P31663 | 4.25
UniProt P39359 | 3.49
UniProt P39383 | 3.31
UniProt P40719 | 3.59
UniProt P46889 | 2.99
UniProt P75796 | 3.2
UniProt P76192 | 3.75
UniProt P76422 | 3.76
UniProt P76594 | 2.33
